Test results: patent EP0411182A1, “Ascorbic acid derivative” (NIPPON HYPOX LABORATORIES INCORPORATED, priority 1989, dated 1991)

Assay: Effects on formazan formation in the xanthine-xanthine oxidase-Nitrotetrazolium Blue system
Type: biochemical
Conditions: for Inhibition ratio (%) of formazan formation: 0.05 M phosphoric acid buffer pH 7.8, 30°C
Protocol: Test example 2 (Effects on formazan formation in the xanthine-xanthine oxidase-Nitrotetrazolium Blue system)
Specimens were added to a 0.05 M phosphoric acid buffer solution (pH 7.8) containing xanthine, EDTA 2Na and Nitrotetrazolium Blue (NTB) so as to provide the respective final concentrations of 5x10⁻⁵ M, 1x10⁻⁴ M and 5x10⁻⁴ M and warmed at 30°C for 30 minutes. Xanthine oxidase (manufactured by Sigma Corp.) was added, and the resulting mixtures were warmed at 30°C for 10 minutes to colorimetrically determine formazan formed by superoxide anion radicals. The inhibition ratio of formazan formation was determined from the results at concentrations of 0.5 mM and 4 mM of each specimen.

SMILES: COC(=O)COC1=C(O)[C@@H]([C@@H]2COC(C)(C)O2)OC1=O [Compound 206, L-5,6-O-isopropylidene-2-O-methylcarbomethylascorbic acid]
- Inhibition ratio (%) of formazan formation (Concentration 0.5 mM): 17.8%
- Inhibition ratio (%) of formazan formation (Concentration 4 mM): 55.5%
- formazan formation (result in words) (summary of Table-4): remarkably inhibited formazan formation
